Test results as given in US20200129570A1, “Specific Bacterial Species and Metabolite That Improves Immune Checkpoint Inhibitor Therapy Efficacy” (BOARD OF REGENTS, THE UNIVERSITY OF TEXAS SYSTEM, priority 2017, published 2020).
“And” between values parts separate entries of the source, which are not always exact repeats. Equal entries are not always repeated. “Also recorded” adds a separate entry of the source.

Tested on: unresectable or metastatic melanoma
Assay: Single-site correlative study: RECIST v1.1 response to immune checkpoint inhibitor therapy (ICT) in metastatic melanoma patients
Format: in vivo, human
Conditions: for RECIST Category / Change in tumor size (%): individual metastatic melanoma patient, one line per patient; for Change in tumor size (%): RECIST v1.1; for number of patients who responded: monotherapy, metastatic melanoma
Description: Patients and Methods. The study design was a single-site, correlative study of the effects of gut microbiota and metabolites on ICT efficacy in 39 patients. The study was approved by the University of Texas Southwestern Medical Center Institutional Review Board (IRB # STU012016-056). The study was conducted in accordance with the Declaration of Helsinki. The inventors enrolled patients with a histologic diagnosis of unresectable or metastatic melanoma that were scheduled to begin ICT and able to collect stool specimens, store them in a freezer and deliver them to the University of Texas Southwestern Cancer Center facility. In addition, patients had to have measurable disease by Response Evaluation Criteria in Solid Tumors (RECIST) v1.1. Tumor sizes were evaluated within 4 weeks prior to beginning therapy by exams, CT scans, and/or MRIs. […] After informed consent, stool samples were collected and immediately frozen until transferred to the University of Texas Southwestern Medical Center at pretreatment and various times post-therapy. Repeat exams and scans were obtained every 2-3 months. Demographics, antibiotic use, and probiotic exposure were recorded for each patient. Patient response, stable disease and progression were evaluated by RECIST v1.1 criteria as reported.

**Q.** With pembrolizumab as the substance, how does the “RECIST Category” value read?
**A.** Progression; also recorded: Response; also recorded: Stable

**Q.** What about the “Change in tumor size (%)” value of the same substance?
**A.** 53% and 81% and −36% and −68% and 100% (2×) and −27% and −14% and 0% and 125% and 46% and −48% and 131%

**Q.** And the “RECIST responders (patients/treated)” value (metastatic melanoma patients)?
**A.** 3/13

**Q.** How did the “RECIST Category” value turn out when nivolumab was run?
**A.** Response

**Q.** What about the “Change in tumor size (%)” value of the same substance?
**A.** −70%

**Q.** And the “number of patients who responded” value?
**A.** One

**Q.** Which results are given for ipilimumab?
**A.** RECIST Category: Response; Change in tumor size (%): −100%; number of patients who responded: One
